The conditions of data set [1]: very low and variable; cited from earlier work.
The target in data set [2] is T1, circulating SAP (Homo sapiens, UniProt P02743).
T1 construct: host or cells: patients' plasma (in vivo)
The note with it: systemic amyloidosis patients, for as long as the drug was administered; cited from earlier work.

In data set [3] the target is T2, SAP (Homo sapiens, UniProt P02743).
T2 construct: reduces the CSF SAP concentration from 2-30 μg/L to <0.1 μg/L in patients with Alzheimer's disease; host or cells: patients' plasma and cerebrospinal fluid (in vivo)
To be noted: cited from earlier work.

Data set [4] concerns the target T3, CYP3A4 (Homo sapiens, UniProt P08684).
T3 construct: purchased Cypex; host or cells: bactosomes (bacterial membranes)
Put plainly: Cytochrome p450 inhibition, bactosomes, fluorogenic substrates 7BQ and DEF. The data set is classed as in vitro ADME. The note with it: for IC50: bactosomes. How it is done:
The assay was designed to evaluate inhibition on cytochrome P450 (CYP) 3A4, 2C9, 2C19, 1A2 and 2D6 enzymes from bactosomes source using fluorogenic substrates. Compound (compound of Formula (I) or Comparator Compound) was dissolved in methanol at 1.65 mM. Daughter solutions were prepared in methanol at 660, 264, 106, 42, 17, 6.8, 2.7, 1.1 and 0.43 μM. NADPH cofactor was prepared with Glucose-6-phosphate (7.8 mg), Glucose-6-phosphate dehydrogenase (6 units), NADP (1.7 mg) per 1 mL in NaHCO3 2%. Substrate Preparation was as Follows: • 7-Methoxy-4-triFluoromethyl Coumarin-3-Acetic acid ethyl ester (FCA): 12.5 mM in acetonitrile • EthoxyResorufin (ER): 0.05 mM in acetonitrile • 4-MethylaminoMethyl-7-Methoxy Coumarin (MMC): 2.5 mM in methanol • 3-Butyryl-7Methoxy Coumarin (BMC): 2.5 mM in DMSO • 7-BenzyloxyQuinoline (7BQ): 2.5 mM in acetonitrile • DiEthoxyFluorescein (DEF): 0.1 mM in acetonitrile Bactosomes (Cypex source) at the concentration of 10 mg of protein per mL were diluted in phosphate buffer 50 mM pH7.4: • 0.33 mL of bactosomes CYP2C9 with 23.8 mL of buffer and 0.11 mL of FCA • 0.33 mL of bactosomes CYP1A2 with 23.6 mL of buffer and 0.275 mL of ER • 0.33 mL of bactosomes CYP2D6 with 23.8 mL of buffer and 0.11 mL of MMC • 0.33 mL of bactosomes CYP2C19 with 23.8 mL of buffer and 0.11 mL of BMC • 0.33 mL of bactosomes CYP3[…] with 23.6 mL of buffer and 0.275 mL of 7BQ • 0.33 mL of bactosomes CYP3[…] with 23.6 mL of buffer and 0.275 mL of DEF Pre-Incubation consisted in mixing 5 μL of compound solution with 220 μL diluted bactosomes and warming it at 37° C. for 10 min. Incubation was started with the addition of 25 μL of NADPH. Then fluorescence of substrate metabolite was read in a SAFIRE instrument (from Tecan) for 5 min: • FCA (2C9): Excitation at 410 nm and Emission at 510 nm • ER (1A2): Excitation at 530 nm and Emission at 590 nm • MMC (2D6): Excitation at 410 nm and Emission at 485 nm • BMC (2C19): Excitation at 410 nm and Emission at 465 nm • 7BQ (3A4H): Excitation at 410 nm and Emission at 530 nm • DEF (3A4L): Excitation at 485 nm and Emission at 530 nm Plotting of inhibition of substrate production against compound concentration allowed the determination of IC50 values.

Data set [5] has as its target T4, CYP2D6 (Homo sapiens, UniProt P10635).
T4 construct: purchased Cypex; host or cells: bactosomes (bacterial membranes)
Kind of data set: Cytochrome p450 inhibition, bactosomes, fluorogenic substrate MMC. The data set is classed as in vitro ADME. As for the experimental part: (§1) The assay was designed to evaluate inhibition on cytochrome P450 (CYP) 3A4, 2C9, 2C19, 1A2 and 2D6 enzymes from bactosomes source using fluorogenic substrates. Compound (compound of Formula (I) or Comparator Compound) was dissolved in methanol at 1.65 mM. Daughter solutions were prepared in methanol at 660, 264, 106, 42, 17, 6.8, 2.7, 1.1 and 0.43 μM. NADPH cofactor was prepared with Glucose-6-phosphate (7.8 mg), Glucose-6-phosphate dehydrogenase (6 units), NADP (1.7 mg) per 1 mL in NaHCO3 2%. […]

Data set [6] addresses T5, CYP2C9 (Homo sapiens, UniProt P11712).
T5 construct: purchased Cypex; host or cells: bactosomes (bacterial membranes)
Put plainly: Cytochrome p450 inhibition, bactosomes, fluorogenic substrate FCA. The data set is classed as in vitro ADME. As for the experimental part: as §1

Data set [7] can be described thus: Solubility in aqueous media. It counts as physicochemical. To be noted: thermodynamic from solid, 4 hour timepoint, read-out: Solubility (mg/mL) at 4 hour timepoint. As for the experimental part:
A known quantity of the compound of Formula (I) was weighed into a suitable vessel (e.g. a screw capped clear glass vial) and a known volume of the required media added (e.g. Simulated Gastric Fluid pH 1.6 [SGF], Simulated Fed State Intestinal Fluid pH 6.5 [FeSSIF], Simulated Fasted State Intestinal Fluid pH 6.5 [FaSSIF], Water [Purified Water], or Britton-Robinson buffer). The compound was wetted with the media by vortex mixing for 30 seconds to 1 minute. The sample was then visually observed to ensure that undissolved solid remained present. The sample was transferred to a gentle mixer (such as a roller mixer) and allowed to agitate until the desired time point was reached. At appropriate times the sample was reassessed visually. If all the solid had dissolved the solubility was recorded as >x mg/mL where x is the known weight used divided by the volume added. If undissolved solid remained a portion of the sample was taken and centrifuged to remove the solid leaving a clear supernatant. The supernatant was diluted volumetrically with a suitable diluent to provide an analytical sample of suitable concentration for analysis. This diluted sample was then analysed by a suitable method such as HPLC against a standard(s) of known concentration. The solubility of the compound can then be calculated using a knowledge of the concentration of the standard, the relative response (e.g. peak areas) of the standard and the analytical sample described, and the dilution of the analytical sample.

The nature of data set [8]: Physical stability (hydrolysis) in phosphate buffer at various pHs. The data set is classed as physicochemical. As for the experimental part: The assay was designed for determining physical stability of compound in buffer at various pHs. Compound of Formula (I) was dissolved in DMSO at 1 mg/mL. Phosphate buffer (PBS) was prepared by mixing K2HPO4 50 mM and KH2PO4 50 mM solutions to obtain 4 buffers at pH 6.0, 7.0, 7.5, 8.0.
Stability studies were conducted at room temperature, and were started by the addition of 8 μL of DMSO solution to 792 μL of PBS 50 mM at pH 6.0, 7.0, 7.5 or 8.0 (1% DMSO). 75 μl of mixture was taken at 0, 1, 2, 4 and 24 h and 225 μL acetonitrile containing internal standard was added.
2 μL of samples were injected into the liquid chromatography system and eluted with a Ascentis C18 column (50×2.1 mm id, 2.7 μm) and with 0.1% formic acid in water (A) and 0.1% formic acid in acetonitrile (B), using the following elution 2 min gradient: 5 to 95% B over 1.2 min, 95% B over 0.6 min and 0.1 min for re-equilibrate column, at 0.5 mL/min at 50° C.
Samples were analysed by Mass Spectrometry with an electrospray source and in positive mode and with following mass transitions: • Compound of Formula (I): 625 to 368 • Monoester of CPHPC: 483 to 226 • CPHPC: 341 to 226

Data set [9] deals with T6, CYP1A2 (Homo sapiens, UniProt P05177).
T6 construct: purchased Cypex; host or cells: bactosomes (bacterial membranes)
T6 sequence (P05177 1-516): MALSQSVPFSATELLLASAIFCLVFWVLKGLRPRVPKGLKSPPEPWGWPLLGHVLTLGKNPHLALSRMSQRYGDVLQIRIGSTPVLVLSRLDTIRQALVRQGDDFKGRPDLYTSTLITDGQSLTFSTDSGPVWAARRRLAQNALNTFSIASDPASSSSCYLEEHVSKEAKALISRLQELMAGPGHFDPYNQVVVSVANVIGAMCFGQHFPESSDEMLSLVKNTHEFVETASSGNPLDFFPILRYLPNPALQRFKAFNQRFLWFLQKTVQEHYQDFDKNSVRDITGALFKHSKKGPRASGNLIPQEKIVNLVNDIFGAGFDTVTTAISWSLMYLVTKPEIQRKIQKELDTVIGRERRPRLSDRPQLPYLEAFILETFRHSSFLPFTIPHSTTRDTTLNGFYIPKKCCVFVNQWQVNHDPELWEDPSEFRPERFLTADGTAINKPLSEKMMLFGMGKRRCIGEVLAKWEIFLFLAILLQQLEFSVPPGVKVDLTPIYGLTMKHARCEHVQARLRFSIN
Put plainly: Cytochrome p450 inhibition, bactosomes, fluorogenic substrate ER. It counts as in vitro ADME. How it is done: as §1

Data set [10] concerns the target T7, CYP2C19 (Homo sapiens, UniProt P33261).
T7 construct: purchased Cypex; host or cells: bactosomes (bacterial membranes)
Kind of data set: Cytochrome p450 inhibition, bactosomes, fluorogenic substrate BMC. The data set is classed as in vitro ADME. How it is done: as §1

The nature of data set [11]: Intestinal microsomal stability. The note with it: up to 30 minutes, 37° C. The data set is classed as in vitro ADME. As for the experimental part:
The assay was designed for determining stability of compound in microsomal matrix. Compound (Compound of Formula (I)) was dissolved in DMSO at 1 mg/mL. Daughter solution was prepared in methanol/water (50/50) at 30.3 ng/mL. Microsomes (from Xenotech) were diluted at 0.625 mg proteins per mL in phosphate buffer 50 mM pH 7.4.
Pre-Incubation consisted of warming microsomal solution 395 μL with 100 μL NaHCO3 (2%) at 37° C. for 7 min. Incubation was started with the addition of 5 μL of daughter solution. 50 μL aliquots of mixture were taken at 0, 3, 6, 12 and 30 min and quenched with 150 μL acetonitrile containing internal standard.
After 10 min centrifugation at 4000 rpm, 2 μL of samples were injected into the liquid chromatography system and eluted on a Ascentis C18 column (50×2.1 mm id, 2.7 μm) with 0.1% formic acid in water (A) and 0.1% formic acid in acetonitrile (B), using the following 2 minute elution gradient: 5 to 95% B over 1.2 min, 95% B over 0.6 min and 0.1 min for re-equilibrate column, at 0.5 mL/min at 50° C.
Samples were analysed by Mass Spectrometry with an electrospray source, in positive mode and with following mass transitions: • Compound of Formula (I): 625 to 368 • Monoester of CPHPC: 483 to 226 • CPHPC: 341 to 226
Controls were made to calculate percentage of disappearance of parent but also appearance of suspected metabolite, i.e. monoester and diacidic form.

[12] abbreviates: substrate DEF, read-out: IC50 CYP3A4 (DEF).

Structures are written as SMILES. Like-named read-outs stand apart in the source and are kept apart here. Some results are limits rather than exact numbers.

T3 sequence (P08684 whole entry): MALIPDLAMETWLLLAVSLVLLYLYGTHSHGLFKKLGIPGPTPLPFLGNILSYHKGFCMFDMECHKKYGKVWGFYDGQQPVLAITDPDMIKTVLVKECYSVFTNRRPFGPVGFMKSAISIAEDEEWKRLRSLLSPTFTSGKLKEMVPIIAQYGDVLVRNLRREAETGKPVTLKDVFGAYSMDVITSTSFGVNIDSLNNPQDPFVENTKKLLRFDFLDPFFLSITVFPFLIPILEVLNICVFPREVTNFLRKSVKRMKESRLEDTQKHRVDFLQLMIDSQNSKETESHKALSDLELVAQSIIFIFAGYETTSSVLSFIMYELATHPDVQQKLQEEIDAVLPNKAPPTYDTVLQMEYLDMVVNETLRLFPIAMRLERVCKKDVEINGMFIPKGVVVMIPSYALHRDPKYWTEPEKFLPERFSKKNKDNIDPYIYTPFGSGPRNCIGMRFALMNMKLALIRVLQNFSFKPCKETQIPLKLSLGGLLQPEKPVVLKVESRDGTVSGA
T2 sequence (P02743 20-223): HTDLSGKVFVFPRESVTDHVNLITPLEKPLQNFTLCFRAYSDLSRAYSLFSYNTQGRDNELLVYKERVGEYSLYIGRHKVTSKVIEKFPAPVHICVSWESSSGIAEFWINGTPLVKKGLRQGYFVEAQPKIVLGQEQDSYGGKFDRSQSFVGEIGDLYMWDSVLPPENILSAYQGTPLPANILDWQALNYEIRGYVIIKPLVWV
T5 sequence (P11712 whole entry): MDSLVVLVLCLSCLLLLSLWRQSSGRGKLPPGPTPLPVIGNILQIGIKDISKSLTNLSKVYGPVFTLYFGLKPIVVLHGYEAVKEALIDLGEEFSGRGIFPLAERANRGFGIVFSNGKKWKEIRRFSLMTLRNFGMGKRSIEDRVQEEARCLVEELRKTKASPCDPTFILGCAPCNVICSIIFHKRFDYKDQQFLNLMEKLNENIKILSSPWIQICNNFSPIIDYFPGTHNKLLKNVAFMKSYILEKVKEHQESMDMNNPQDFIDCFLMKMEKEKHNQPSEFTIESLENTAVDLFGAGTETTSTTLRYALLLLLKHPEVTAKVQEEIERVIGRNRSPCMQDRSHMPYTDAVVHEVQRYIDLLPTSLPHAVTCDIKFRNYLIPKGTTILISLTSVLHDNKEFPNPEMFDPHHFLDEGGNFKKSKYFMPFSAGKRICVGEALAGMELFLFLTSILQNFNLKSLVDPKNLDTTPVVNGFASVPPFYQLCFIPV
T4 sequence (P10635 whole entry): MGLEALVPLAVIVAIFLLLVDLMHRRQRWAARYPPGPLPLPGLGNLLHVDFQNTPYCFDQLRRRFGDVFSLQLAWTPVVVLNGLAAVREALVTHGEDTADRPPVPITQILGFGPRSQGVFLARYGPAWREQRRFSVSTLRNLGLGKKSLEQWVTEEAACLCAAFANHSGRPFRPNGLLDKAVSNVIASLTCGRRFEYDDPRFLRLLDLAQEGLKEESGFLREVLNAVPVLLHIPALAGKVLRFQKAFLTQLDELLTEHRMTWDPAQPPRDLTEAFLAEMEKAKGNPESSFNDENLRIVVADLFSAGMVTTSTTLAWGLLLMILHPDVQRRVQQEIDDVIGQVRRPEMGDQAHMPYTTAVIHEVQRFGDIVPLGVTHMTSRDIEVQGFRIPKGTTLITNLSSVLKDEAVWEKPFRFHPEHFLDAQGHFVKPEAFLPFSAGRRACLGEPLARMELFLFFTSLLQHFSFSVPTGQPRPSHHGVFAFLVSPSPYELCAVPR
T7 sequence (P33261 whole entry): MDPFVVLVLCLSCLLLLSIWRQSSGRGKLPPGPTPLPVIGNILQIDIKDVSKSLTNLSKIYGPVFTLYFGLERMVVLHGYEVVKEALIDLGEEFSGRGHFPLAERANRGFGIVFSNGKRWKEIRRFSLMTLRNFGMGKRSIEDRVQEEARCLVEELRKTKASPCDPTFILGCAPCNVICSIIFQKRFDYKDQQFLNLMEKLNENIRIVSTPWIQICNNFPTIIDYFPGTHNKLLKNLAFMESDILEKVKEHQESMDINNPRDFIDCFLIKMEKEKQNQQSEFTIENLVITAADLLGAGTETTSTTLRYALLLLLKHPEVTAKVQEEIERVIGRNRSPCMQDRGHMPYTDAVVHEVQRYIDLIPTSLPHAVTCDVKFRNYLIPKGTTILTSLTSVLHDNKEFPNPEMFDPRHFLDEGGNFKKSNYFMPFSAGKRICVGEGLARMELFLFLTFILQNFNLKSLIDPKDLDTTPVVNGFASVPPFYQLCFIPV
T1 sequence (P02743 20-223): as the sequence (P02743 20-223) above

Consider `O=C(O)[C@H]1CCCN1C(=O)CCCCC(=O)N1CCC[C@@H]1C(=O)O` [CPHPC, (R)-1-[6-[(R)-2-carboxy-pyrrolidin-1-yl]-6-oxo-hexanoyl]pyrrolidine-2-carboxylic acid], for which the oral bioavailability in data set [1] is recorded as 3-5%. Moreover, the “depletion of circulating SAP (in words)” value in data set [2] was “almost complete depletion”. In [3] (CSF, patients with Alzheimer's disease, from 2-30 μg/L), the “CSF SAP concentration after depletion by CPHPC” value was below 0.1 µg/L. The “plasma SAP after depletion by CPHPC” value in data set [3] (plasma, from the normal 20-50 mg/L) is on record as below 0.1 mg/L.

As to `CC(OC(=O)[C@H]1CCCN1C(=O)CCCCC(=O)N1CCC[C@@H]1C(=O)OC(C)OC(=O)C(C)(C)C)OC(=O)C(C)(C)C` (stereo partly drawn) [Comparator Compound, (2R,2′R)-bis(1-(pivaloyloxy)ethyl) 1,1′-adipoylbis(pyrrolidine-2-carboxylate), reference compound], the “inhibition of CYP3A4-7BQ (in words)” value in [4] (substrate 7BQ) is listed as “significant inhibition”. Further, the “inhibition of CYP3A4-DEF (in words)” value in data set [4] (substrate DEF) is “significant inhibition”.

On to `O=C(OCOC(=O)[C@H]1CCCN1C(=O)CCCCC(=O)N1CCC[C@@H]1C(=O)OCOC(=O)C1CCOCC1)C1CCOCC1` [Compound of Formula (I), (2R,2′R)-bis(((tetrahydro-2H-pyran-4-carbonyl)oxy)methyl) 1,1′-adipoylbis(pyrrolidine-2-carboxylate)], for which the IC50 – broadly, the concentration needed to halve the response being measured – in data set [5] is above 33 µM; in [6], above 33 µM; in data set [4] (substrate 7BQ, read-out: IC50 CYP3A4 (7BQ)), above 33 µM; in [4] (setting [12]), above 33 µM; in data set [9], above 33 µM; in [10], above 33 µM. Also, the solubility at 4 h in data set [7] (FaSSIF (Simulated Fasted State Intestinal Fluid pH 6.5)) is 1.04 mg/mL; in data set [7] (FeSSIF (Simulated Fed State Intestinal Fluid pH 6.5)), 0.599 mg/mL; in data set [7] (SGF (Simulated Gastric Fluid pH 1.6)) it was 0.577 mg/mL; in data set [7] (water (purified water), Water), 0.574 mg/mL. The “sensitivity to hydrolysis at different pH (in words)” value in data set [8] (PBS pH6 to pH8, room temperature) was “less sensitive to hydrolysis for a pH below 7.5”. Moreover, the “compound hydrolysed after 24 h” value in data set [8] (acidic environment (pH less than 7.0), PBS, room temperature, 24 h) is on record as “Less than 20%”. Moreover, the “rate of hydrolysis in human intestinal microsomes (in words)” value in [11] is given as “low rate of hydrolysis”.

`O=C(OCOC(=O)[C@H]1CCCN1C(=O)CCCCC(=O)N1CCC[C@@H]1C(=O)O)C1CCOCC1` [mono-ester derivative, (R)-1-(6-oxo-6-((R)-2-((((tetrahydro-2H-pyran-4-carbonyl)oxy)methoxy)carbonyl)pyrrolidin-1-yl)hexanoyl)pyrrolidine-2-carboxylic acid]: the IC50 in data set [5], in data set [6], in data set [4] (setting [12]), in data set [9] and in [10] was above 33 µM in each case.

Values taken from US10328052B2, “D-proline derivatives as SAP depleting agent” (GlaxoSmithKline Intellectual Property Development Limited, priority 2015, dated 2019).
